Experimental data: patent US6117975A, “Melanocortin receptor polypeptides MC-3, MC-4, and MC-5” (The Regents of the University of Michigan, priority 1996, dated 2000)

Tests used:
[1] = target: T1, wild-type H2-histamine receptor (cH2R) (Canis lupus familiaris, UniProt P17124); conditions: Hepa cells
Description: (§1) Chimeric Receptor. […] The chimeric receptor (cH2R/MC3R-3i) was constructed by cassette mutation at the junction of the fifth and sixth transmembrane domains of cH2R. Six PCR primers were used to generate three DNA fragments which were subsequently ligated together. The three PCR-generated fragments consisted of 1) the 5' coding region of the cH2R receptor beginning just prior to the ATG codon and ending with the 3' end of the fifth transmembrane domain; 2) the portion of the MC3 receptor gene encoding its third intracytoplasmic loop; and 3) the 3' coding region of the cH2R beginning with that segment encoding the 5' end of the sixth transmembrane domain and ending slightly past the termination codon. The DNA fragments were cut with appropriate restriction enzymes at pre-engineered restriction sites designed so that the three fragments could be assembled together in only the correct alignment. Restriction sites were also designed to facilitate subcloning the chimeric receptor DNA into CMVneo and the sequencing vector M13. The nucleotide sequence of the CMVneo cH2R/MC3R-3i construct was confirmed prior to expression in Hepa cells.
(§2) cAMP Assays. A cAMP assay kit purchased from Amersham (TRK 432, Arlington Heights, Ill.) was employed. Transfected cells were grown to confluence in 12-well (2.4×1.7 cm) tissue culture plates. […]

[2] = tested on: chimeric receptor cH2R/MC3R-3i; conditions: chimeric cH2R/MC3R-3i, Hepa cells
Description: as §1, §2

[3] = tested on: chimeric receptor cH2R/MC3R-3i; test: [3H] IP production in Hepa cells transfected with chimeric cH2R/hMC3R-3i; type: cell-based; conditions: chimeric cH2R/MC3R-3i, Hepa cells
Description: as §1
(§3) Inositol Phosphate (IP) Assays.

[4] = target: T1, wild-type H2-histamine receptor (cH2R); conditions: Hepa cells; remark: listed apart in the source
Description: as §1, §3

T1 sequence (P17124 whole entry, the tested form may be a part): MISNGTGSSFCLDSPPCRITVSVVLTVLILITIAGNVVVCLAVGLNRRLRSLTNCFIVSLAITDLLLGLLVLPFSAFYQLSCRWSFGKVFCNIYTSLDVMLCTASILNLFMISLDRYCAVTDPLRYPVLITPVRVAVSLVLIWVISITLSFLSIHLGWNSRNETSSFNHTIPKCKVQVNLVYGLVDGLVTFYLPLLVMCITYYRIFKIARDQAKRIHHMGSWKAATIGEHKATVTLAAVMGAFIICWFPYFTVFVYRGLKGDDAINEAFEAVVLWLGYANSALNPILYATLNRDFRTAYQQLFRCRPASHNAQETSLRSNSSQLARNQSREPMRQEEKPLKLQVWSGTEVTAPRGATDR

NCCc1c[nH]cn1 [histamine]
cAMP dose-response (in words) [1]: monophasic dose-dependent increases in both cAMP and [^3 H]-IP production
cAMP dose-response (in words) [2]: monophasic cAMP dose-response curve
[3H]-IP production dose-response (in words) [3]: biphasic dose-response curve for [^3 H]-IP production
[3H]-IP production dose-response (in words) [4]: monophasic dose-dependent increases in both cAMP and [^3 H]-IP production
